Patent US7411083B2, “Substituted acetic acid derivatives” (Wyeth, priority 2003, dated 2008)

biological target: T1, recombinant human plasminogen activator inhibitor-1 (PAI-1) (Homo sapiens, UniProt P05121); assay: Screening for PAI-1 inhibition (residual tPA activity, Spectrozyme-tPA chromogenic substrate); format: biochemical; conditions: test compound at 100 Um; pH 6.6 buffer, 140 nM PAI-1, 70 nM tPA
T1 construct: purchased Molecular Innovations, Royal Oak, Mich
Procedure: Screening for PAI-1 inhibition. Test compounds are dissolved in DMSO at a final concentration of 10 Mm, then diluted 100× in physiologic buffer. The inhibitory assay is initiated by the addition of the test compound (1-100 μM final concentration, maximum DMSO concentration of 0.2%) in a Ph 6.6 buffer containing 140 Nm recombinant human plasminogen activator inhibitor-1 (PAI-1; Molecular Innovations, Royal Oak, Mich.). Following a 1 hour incubation at room temperature, 70 Nm of recombinant human tissue plasminogen activator (Tpa) is added, and the combination of the test compound, PAI-1 and Tpa is incubated for an additional 30 minutes. Following the second incubation, Spectrozyme-Tpa (American Diagnostica, Greenwich, Conn.), a chromogenic substrate for Tpa, is added and absorbance read at 405 nm at 0 and 60 minutes. Relative PAI-1 inhibition is equal to the residual Tpa activity in the presence of the test compounds and PAI-1. Control treatments include the complete inhibition of Tpa by PAI-1 at the molar ratio employed (2:1), and the absence of any effect of the test compound on Tpa alone.

T1 sequence (P05121 24-402): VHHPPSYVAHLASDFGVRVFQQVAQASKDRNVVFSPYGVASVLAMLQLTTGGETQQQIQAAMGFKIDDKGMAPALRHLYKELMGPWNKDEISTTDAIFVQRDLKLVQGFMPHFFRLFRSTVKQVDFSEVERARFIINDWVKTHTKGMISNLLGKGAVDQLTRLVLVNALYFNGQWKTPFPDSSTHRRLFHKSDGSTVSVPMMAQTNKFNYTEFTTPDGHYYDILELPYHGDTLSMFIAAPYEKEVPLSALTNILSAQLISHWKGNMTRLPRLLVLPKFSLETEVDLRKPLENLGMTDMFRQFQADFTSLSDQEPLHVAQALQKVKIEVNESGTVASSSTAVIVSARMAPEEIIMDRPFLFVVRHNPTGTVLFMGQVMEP

inhibition at 100 µM [%]	Compound
86	C=CCn1cc(/C=N/OCC(=O)O)c2cc(OCc3ccc(C(F)(F)F)cc3)ccc21 [Compound 1, ({[(1E)-(1-allyl-5-{[4-(trifluoromethyl)benzyl]oxy}-1H-indol-3-yl)methylidene]amino}oxy)acetic acid]
83	CCn1cc(/C=N/OCC(=O)O)c2cc(OCc3ccc(C(F)(F)F)cc3)ccc21 [Compound 2, ({[(1E)-(1-ethyl-5-{[4-(trifluoromethyl)benzyl]oxy}-1H-indol-3-yl)methylidene]amino}oxy)acetic acid]
83	C=CCn1cc(/C=N/OCC(=O)O)c2cc(OCc3ccc(C(C)(C)C)cc3)ccc21 [Compound 4, {[((1E)-{1-allyl-5-[(4-tert-butylbenzyl)oxy]-1H-indol-3-yl}methylidene)amino]oxy}acetic acid]
93	CCn1cc(/C=N/OCC(=O)O)c2cc(OCc3ccc(C(C)(C)C)cc3)ccc21 [Compound 5, {[((1E)-{5-[(4-tert-butylbenzyl)oxy]-1-ethyl-1H-indol-3-yl}methylidene)amino]oxy}acetic acid]
68	CC(C)(C)c1ccc(COc2ccc3c(c2)c(/C=N/OCC(=O)O)cn3Cc2ccccc2)cc1 [Compound 6, {[((1E)-{1-benzyl-5-[(4-tert-butylbenzyl)oxy]-1H-indol-3-yl}methylidene)amino]oxy}acetic acid]
83	C=CCn1cc(/C=N/OCC(=O)O)c2cc(OCc3ccc(Br)cc3)ccc21 [Compound 7, {[((1E)-{1-allyl-5-[(4-bromobenzyl)oxy]-1H-indol-3-yl}methylidene)amino]oxy}acetic acid]
63	CCn1cc(/C=N/OCC(=O)O)c2cc(OCc3ccc(Br)cc3)ccc21 [Compound 8, {[((1E)-{5-[(4-bromobenzyl)oxy]-1-ethyl-1H-indol-3-yl}methylidene)amino]oxy}acetic acid]
86	C=CCn1cc(/C=N/OCC(=O)O)c2cc(OCc3cc(C(F)(F)F)cc(C(F)(F)F)c3)ccc21 [Compound 10, ({[(1E)-(1-allyl-5-{[3,5-bis(trifluoromethyl)benzyl]oxy}-1H-indol-3-yl)methylidene]amino}oxy)acetic acid]
71	CCn1cc(/C=N/OCC(=O)O)c2cc(OCc3cc(C(F)(F)F)cc(C(F)(F)F)c3)ccc21 [Compound 11, ({[(1E)-(5-{[3,5-bis(trifluoromethyl)benzyl]oxy}-1-ethyl-1H-indol-3-yl)methylidene]amino}oxy)acetic acid]
57	O=C(O)CO/N=C/c1cn(Cc2ccccc2)c2ccc(OCc3cc(C(F)(F)F)cc(C(F)(F)F)c3)cc12 [Compound 12, ({[(1E)-(1-benzyl-5-{[3,5-bis(trifluoromethyl)benzyl]oxy}-1H-indol-3-yl)methylidene]amino}oxy)acetic acid]
95	C=CCn1cc(/C=N/OCC(=O)O)c2cc(OCc3cccc(Br)c3)ccc21 [Compound 13, {[((1E)-{1-allyl-5-[(3-bromobenzyl)oxy]-1H-indol-3-yl}methylidene)amino]oxy}acetic acid]
80	CCn1cc(/C=N/OCC(=O)O)c2cc(OCc3cccc(Br)c3)ccc21 [Compound 14, {[((1E)-{5-[(3-bromobenzyl)oxy]-1-ethyl-1H-indol-3-yl}methylidene)amino]oxy}acetic acid]
71	O=C(O)CO/N=C/c1cn(Cc2ccccc2)c2ccc(OCc3cccc(Br)c3)cc12 [Compound 15, {[((1E)-{1-benzyl-5-[(3-bromobenzyl)oxy]-1H-indol-3-yl}methylidene)amino]oxy}acetic acid]
58	C=CCn1cc(/C=N/OCC(=O)O)c2cc(OCc3cccc(Cl)c3)ccc21 [Compound 16, {[((1E)-{1-allyl-5-[(3-chlorobenzyl)oxy]-1H-indol-3-yl}methylidene)amino]oxy}acetic acid]
68	CCn1cc(/C=N/OCC(=O)O)c2cc(OCc3cccc(Cl)c3)ccc21 [Compound 17, {[((1E)-{5-[(3-chlorobenzyl)oxy]-1-ethyl-1H-indol-3-yl}methylidene)amino]oxy}acetic acid]
84	O=C(O)CO/N=C/c1cn(Cc2ccccc2)c2ccc(OCc3cccc(Cl)c3)cc12 [Compound 18, {[((1E)-{1-benzyl-5-[(3-chlorobenzyl)oxy]-1H-indol-3-yl}methylidene)amino]oxy}acetic acid]
73	C=CCn1cc(/C=N/OCC(=O)O)c2cc(OCc3ccc(C)cc3)ccc21 [Compound 19, {[((1E)-{1-allyl-5-[(4-methylbenzyl)oxy]-1H-indol-3-yl}methylidene)amino]oxy}acetic acid]

inhibition at 100 µM [%]	Compound
44	CCn1cc(/C=N/OCC(=O)O)c2cc(OCc3ccc(C)cc3)ccc21 [Compound 20, {[((1E)-{1-ethyl-5-[(4-methylbenzyl)oxy]-1H-indol-3-yl}methylidene)amino]oxy}acetic acid]
80	Cc1ccc(COc2ccc3c(c2)c(/C=N/OCC(=O)O)cn3Cc2ccccc2)cc1 [Compound 21, {[((1E)-{1-benzyl-5-[(4-methylbenzyl)oxy]-1H-indol-3-yl}methylidene)amino]oxy}acetic acid]
80	C=CCn1cc(/C=N/OCC(=O)O)c2cc(OCc3cccc(C(F)(F)F)c3)ccc21 [Compound 22, ({[(1E)-(1-allyl-5-{[3-(trifluoromethyl)benzyl]oxy}-1H-indol-3-yl)methylidene]amino}oxy)acetic acid]
56	CCn1cc(/C=N/OCC(=O)O)c2cc(OCc3cccc(C(F)(F)F)c3)ccc21 [Compound 23, ({[(1E)-(1-ethyl-5-{[3-(trifluoromethyl)benzyl]oxy}-1H-indol-3-yl)methylidene]amino}oxy)acetic acid]
79	O=C(O)CO/N=C/c1cn(Cc2ccccc2)c2ccc(OCc3cccc(C(F)(F)F)c3)cc12 [Compound 24, ({[(1E)-(1-benzyl-5-{[3-(trifluoromethyl)benzyl]oxy}-1H-indol-3-yl)methylidene]amino}oxy)acetic acid]
68	C=CCn1cc(/C=N/OCC(=O)O)c2cc(OCc3cccc(C)c3)ccc21 [Compound 25, {[((1E)-{1-allyl-5-[(3-methylbenzyl)oxy]-1H-indol-3-yl}methylidene)amino]oxy}acetic acid]
26	CCn1cc(/C=N/OCC(=O)O)c2cc(OCc3cccc(C)c3)ccc21 [Compound 26, {[((1E)-{1-ethyl-5-[(3-methylbenzyl)oxy]-1H-indol-3-yl}methylidene)amino]oxy}acetic acid]
99	Cc1cccc(COc2ccc3c(c2)c(/C=N/OCC(=O)O)cn3Cc2ccccc2)c1 [Compound 27, {[((1E)-{1-benzyl-5-[(3-methylbenzyl)oxy]-1H-indol-3-yl}methylidene)amino]oxy}acetic acid]
70	CCn1cc(/C=N/OCC(=O)O)c2cc(OCc3ccccc3Cl)ccc21 [Compound 28, {[((1E)-{5-[(2-chlorobenzyl)oxy]-1-ethyl-1H-indol-3-yl}methylidene)amino]oxy}acetic acid]
82	O=C(O)CO/N=C/c1cn(Cc2ccccc2)c2ccc(OCc3ccccc3Cl)cc12 [Compound 29, {[((1E)-{1-benzyl-5-[(2-chlorobenzyl)oxy]-1H-indol-3-yl}methylidene)amino]oxy}acetic acid]
11	O=C(O)CO/N=C/c1c[nH]c2ccc(OCc3ccccc3Cl)cc12 [Compound 30, {[((1E)-{5-[(2-chlorobenzyl)oxy]-1H-indol-3-yl}methylidene)amino]oxy}acetic acid]
90	C#CCn1cc(/C=N/OCC(=O)O)c2cc(OCc3ccc(C(F)(F)F)cc3)ccc21 [Compound 31, ({[(1E)-(1-(2-propynyl)-5-{[4-(trifluoromethyl)benzyl]oxy}-1H-indol-3-yl)methylidene]amino}oxy)acetic acid]
91	C#CCn1cc(/C=N/OCC(=O)O)c2cc(OCc3ccc(C(C)(C)C)cc3)ccc21 [Compound 33, [({(1E)-[5-[(4-tert-butylbenzyl)oxy]-1-(2-propynyl)-1H-indol-3-yl]methylidene}amino)oxy]acetic acid]
88	Cn1cc(/C=N/OCC(=O)O)c2cc(OCc3ccc(C(C)(C)C)cc3)ccc21 [Compound 34, {[((1E)-{5-[(4-tert-butylbenzyl)oxy]-1-methyl-1H-indol-3-yl}methylidene)amino]oxy}acetic acid]
44	C#CCn1cc(/C=N/OCC(=O)O)c2cc(OCc3cc(C(F)(F)F)cc(C(F)(F)F)c3)ccc21 [Compound 35, [({(1E)-[5-{[3,5-bis(trifluoromethyl)benzyl]oxy}-1-(2-propynyl)-1H-indol-3-yl]methylidene}amino)oxy]acetic acid]
92	C#CCn1cc(/C=N/OCC(=O)O)c2cc(OCc3cccc(Br)c3)ccc21 [Compound 36, [({(1E)-[5-[(3-bromobenzyl)oxy]-1-(2-propynyl)-1H-indol-3-yl]methylidene}amino)oxy]acetic acid]
70	Cn1cc(/C=N/OCC(=O)O)c2cc(OCc3cccc(Br)c3)ccc21 [Compound 37, {[((1E)-{5-[(3-bromobenzyl)oxy]-1-methyl-1H-indol-3-yl}methylidene)amino]oxy}acetic acid]
